Experiment [1] deals with T1, GABAA receptor α1 subunit (α1β3 GABAAR) (Homo sapiens, UniProt P14867+P28472).
T1 sequence (P14867 28-456): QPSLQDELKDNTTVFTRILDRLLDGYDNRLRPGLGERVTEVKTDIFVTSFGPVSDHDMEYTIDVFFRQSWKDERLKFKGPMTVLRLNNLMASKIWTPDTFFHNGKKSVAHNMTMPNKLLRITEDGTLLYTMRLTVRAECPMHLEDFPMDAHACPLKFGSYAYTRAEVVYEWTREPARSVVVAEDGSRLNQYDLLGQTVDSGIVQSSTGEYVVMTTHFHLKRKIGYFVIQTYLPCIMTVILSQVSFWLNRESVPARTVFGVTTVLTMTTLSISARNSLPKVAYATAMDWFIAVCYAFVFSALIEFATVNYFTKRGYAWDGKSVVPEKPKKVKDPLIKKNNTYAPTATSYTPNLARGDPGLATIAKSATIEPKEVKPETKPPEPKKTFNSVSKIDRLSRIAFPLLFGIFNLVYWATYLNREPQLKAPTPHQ
T1 sequence (P28472 26-473): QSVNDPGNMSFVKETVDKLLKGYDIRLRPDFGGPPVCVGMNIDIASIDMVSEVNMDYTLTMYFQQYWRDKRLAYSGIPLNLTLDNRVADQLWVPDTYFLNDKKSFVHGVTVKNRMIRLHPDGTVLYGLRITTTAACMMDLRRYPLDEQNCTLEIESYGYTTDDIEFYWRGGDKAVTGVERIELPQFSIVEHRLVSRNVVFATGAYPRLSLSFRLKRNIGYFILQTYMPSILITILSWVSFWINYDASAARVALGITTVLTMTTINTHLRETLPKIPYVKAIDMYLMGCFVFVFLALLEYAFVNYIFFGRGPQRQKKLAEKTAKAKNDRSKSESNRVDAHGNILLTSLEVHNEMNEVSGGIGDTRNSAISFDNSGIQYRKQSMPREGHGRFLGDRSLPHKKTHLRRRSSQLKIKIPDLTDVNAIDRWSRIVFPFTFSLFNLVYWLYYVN
As to the kind of experiment: photoaffinity labeling with residue identification. The class given is binding.

Experiment [2] has as its target T2, GABAA receptor β3 subunit (α1β3 GABAAR) (Homo sapiens, UniProt P14867+P28472).
T2 sequence (P28472 26-473): T1 sequence (P28472 26-473)
T2 sequence (P14867 28-456): T1 sequence (P14867 28-456)
In words: photoaffinity labeling with residue identification. The class given is binding.

The target in experiment [3] is T2, GABAA receptor β3 subunit (α1β3 GABAAR). As to the kind of experiment: [3H]muscimol radioligand filtration binding to purified receptor. The conditions noted are these: cited from earlier work.

Usually EC50 stands for the concentration needed to bring the measured effect to its halfway point. Read a low EC50 as higher potency in that assay. As to `CC(c1ccccc1)n1cncc1C(=O)OCCC1(C)N=N1` (stereo not drawn) [azietomidate, 2-(3-methyl-3H-diaziren-3-yl) ethyl 1-(1-phenylethyl)-1H-imidazole-5-carboxylate], the EC50 in experiment [1] and in experiment [2] was 2.7 ± 1 µM throughout. In general, Kd refers to a measure of binding affinity in units of concentration. Take `NCc1cc(=O)[nH]o1` [muscimol, 3-hydroxy-5-aminomethylisoxazole]: the Kd in experiment [3] is 0.01 µM.

The record behind these values is paper PMC3274767 (2012).
